Measured values reported in patent publication US5034380A, “Alkoxymethylidene epipodophyllotoxin glucosides” (Bristol-Myers Squibb Company, priority 1989, dated 1991).
≈ marks a conversion by molar mass, not a printed value.

Tests used:
[1] = test system: murine transplantable P388 leukemia; test: in vivo antitumor activity against P388 leukemia in mice (single ip dose, median survival time); set-up: species or system murine (female CDF1 mice); details: Q1D × 1, ip; for T/C % of MST: day 1
Protocol: Representative compounds of the present invention were evaluated for antitumor activity against murine transplantable P388 leukemia. Female CDF1 mice were inoculated intraperitoneally with approximately 10^6 P388 leukemic cells (day 0). […] The percent increase of median survival time (MST) of treated animals over that of untreated control animals was determined and reported as % T/C. Compounds showing % T/C values of 125 or greater are considered to have significant antitumor activity.

[2] = test system: B16-F10 murine melanoma; test: in vitro cytotoxicity, B16-F10 murine melanoma; format: cell-based; details: Mus musculus; B16-F10, 72 hours, neutral red
Protocol: (§1) Representative compounds of the present invention were also tested in in vitro cytotoxicity assays against four tumor cell lines. These cell lines were grown and maintained at 37° C. under a humidified atmosphere in a 5% CO2 incubator:
B16-F10 murine melanoma in Eagle's MEM medium (Nissui) containing kanamycin (60 μg/ml) and supplemented with heat-inactivated fetal calf serum (FCS, 10 %) and non-essential amino acids (0.6 %);
(§2) In experiments using the B16-F10 and Moser cell lines, exponentially growing cells were harvested, counted and suspended in the culture medium at a concentration of 1.5×10^4 and 3×10^4 cells/ml, respectively. Twenty-four hours after planting cell suspension (180 μl) into wells of a 96-well microtiter plate, test materials (20 μl) were added to the wells and the plates were incubated for 72 hours. Cytotoxicity against the tumor cells was colorimetrically determined at 540 nm after staining viable cells with neutral red solution. For the K562 and K562/ADM cell lines, 900 μl of the cell suspension (8×10^4 cells/ml) was incubated with test materials (100 μl) at 37° C., 5% CO2 for 48 hours in a 24-well tissue culture plate. Cytotoxicity was determined by counting the number of cells using a cell counter.

[3] = test system: Moser human colon carcinoma; test: in vitro cytotoxicity, Moser human colon carcinoma; format: cell-based; details: 72 hours, neutral red
Protocol: as §1
Moser human colon carcinoma in Eagle's MEM medium supplemented with FCS (10 %);
as §2

[4] = test system: K562/ADM, an adriamycin-resistant subline; test: in vitro cytotoxicity, K562/ADM adriamycin-resistant subline; format: cell-based; details: Homo sapiens, 48 hours, cell counter
Protocol: as §1
(§3) K562 human myelogenous leukemia and K562/ADM, an adriamycin-resistant subline which was kindly provided by Dr. Takashi Tsuruo (University of Tokyo) in RPMI 1640 medium (Nissui) supplemented with FCS (10 %), penicillin (100 U/ml) and streptomycin (100 μg/ml).
as §2

[5] = test system: K562 human myelogenous leukemia; test: in vitro cytotoxicity, K562 human myelogenous leukemia; format: cell-based; details: K562, 48 hours, cell counter
Protocol: as §1, §3, §2

| SMILES | T/C % of MST ([1]; 0.1 mg/kg) | T/C % of MST ([1]; 0.3 mg/kg) | T/C % of MST ([1]; 1 mg/kg) | T/C % of MST ([1]; 3 mg/kg) | T/C % of MST ([1]; 10 mg/kg) | T/C % of MST ([1]; 30 mg/kg) | T/C % of MST ([1]; 60 mg/kg) | T/C % of MST ([1]; 120 mg/kg) | IC50 [2] | IC50 [3] | IC50 [4] | IC50 [5] | Number of survivors/tested on day 50 ([1]; 120 mg/kg) |
| --- | --- | --- | --- | --- | --- | --- | --- | --- | --- | --- | --- | --- | --- |
| COc1cc([C@@H]2c3cc4c(cc3[C@@H](O[C@@H]3O[C@@H]5CO[C@H](OC)O[C@H]5[C@H](O)[C@H]3O)[C@H]3COC(=O)[C@H]23)OCO4)cc(OC)c1O [Compound 1a, 4'-Demethyl-4-O-(4,6-O-β-Methoxymethylidene-β-D-Glucopyranosyl)Epipodophyllotoxin] | 115% | 132% | 137% | 142% | 149% | 166% | 195% | 248% | 0.094 µg/mL (≈ 0.155 µM) |  |  |  |  |
| COc1cc([C@@H]2c3cc4c(cc3[C@@H](O[C@@H]3O[C@@H]5CO[C@@H](OC)O[C@H]5[C@H](O)[C@H]3O)[C@H]3COC(=O)[C@H]23)OCO4)cc(OC)c1O [Compound 1b, 4'-Demethyl-4-O-(4,6-O-α-Methoxymethylidene-β-D-Glucopyranosyl)EpipodophYllotoxin] | 110% | 120% | 130% | 145% | 165% | 180% |  |  | 0.27 µg/mL (≈ 0.447 µM) | 3.4 µg/mL (≈ 5.62 µM) |  |  |  |
| CCO[C@H]1OC[C@H]2O[C@@H](O[C@@H]3c4cc5c(cc4[C@@H](c4cc(OC)c(O)c(OC)c4)[C@H]4C(=O)OC[C@@H]43)OCO5)[C@H](O)[C@@H](O)[C@@H]2O1 [Compound 2a, 4'-Demethyl-4-O-(4,6-O-β-Ethoxymethylidene-β-D-Glucopyranosyl)Epipodophyllotoxin] | 114% | 119% | 124% | 133% | 148% | 171% | 181% | 214% | 0.11 µg/mL (≈ 0.178 µM) | 1.7 µg/mL (≈ 2.75 µM) | > 50 µg/mL | 0.065 µg/mL (≈ 0.105 µM) |  |
| CCO[C@@H]1OC[C@H]2O[C@@H](O[C@@H]3c4cc5c(cc4[C@@H](c4cc(OC)c(O)c(OC)c4)[C@H]4C(=O)OC[C@@H]43)OCO5)[C@H](O)[C@@H](O)[C@@H]2O1 [Compound 2b, 4'-Demethyl-4-O-(4,6-O-α-Ethoxymethylidene-α-D-Glucopyranosyl)Epipodophyllotoxin] | 114% | 114% | 119% | 138% | 143% | 167% | 200% | 219% | 0.54 µg/mL (≈ 0.873 µM) | 2.2 µg/mL (≈ 3.56 µM) | > 50 µg/mL | 0.18 µg/mL (≈ 0.291 µM) | 1/4 |
| COc1cc([C@@H]2c3cc4c(cc3[C@@H](O[C@@H]3O[C@@H]5COC(OC)(OC)O[C@H]5[C@H](O)[C@H]3O)[C@H]3COC(=O)[C@H]23)OCO4)cc(OC)c1O [Compound 3, 4'-Demethyl-4-O-(4,6-O-Dimethoxymethylidene-β-D-Glucopyranosyl)Epipodophyllotoxin] | 125% | 135% | 135% | 140% | 170% | 190% | 170% | 210% | 2.7 µg/mL (≈ 4.25 µM) | 3.3 µg/mL (≈ 5.2 µM) |  |  | 1/4 |
| CCOC1(OCC)OC[C@H]2O[C@@H](O[C@@H]3c4cc5c(cc4[C@@H](c4cc(OC)c(O)c(OC)c4)[C@H]4C(=O)OC[C@@H]43)OCO5)[C@H](O)[C@@H](O)[C@@H]2O1 [Compound 4, 4'-Demethyl-4-O-(4,6-Diethoxymethylidene-β-D-Glucopvranosyl)Epipodophyllotoxin] | 100% | 109% | 127% | 132% | 136% | 145% | 150% | 182% | 7.3 µg/mL (≈ 11 µM) | 3 µg/mL (≈ 4.53 µM) | 32 µg/mL (≈ 48.3 µM) | 0.082 µg/mL (≈ 0.124 µM) |  |
| COc1cc([C@@H]2c3cc4c(cc3[C@@H](O[C@@H]3O[C@@H]5CO[C@@H](C)O[C@H]5[C@H](O)[C@H]3O)[C@H]3COC(=O)[C@H]23)OCO4)cc(OC)c1O [Etoposide, reference compound] | 120% | 130% | 136% | 143% | 163% | 185% | 212% | 288% |  |  |  |  |  |
